A short description of the series: pH / titration curve of 4% diclofenac sodium in water. The series is classed as physicochemical.

Structures are written as SMILES.

With `O=C(O)Cc1ccccc1Nc1c(Cl)cccc1Cl` [diclofenac, 2-[2-(2,6-dichloroanilino)phenyl]acetic acid], the “pH of diclofenac in water” value (4% diclofenac sodium in water) is reported as “around 7.8”. In addition, for the setting “strong acid or base”, the “buffering capacity to adjust the pH by 1 unit” value is 0.625 mMoles.

The record behind these values is patent US20260232574A1, “COMPOSITIONS AND METHODS FOR TREATING DYSMENORRHEA” (Daré Bioscience, Inc., priority 2023, published 2026).
